Test results reported in patent publication US10898582B2, “Bi-functional allosteric protein-drug molecules for targeted therapy” (UNIVERSITY OF UTAH RESEARCH FOUNDATION, priority 2014, dated 2021).
Blank lines part the entries; values can stand above or below the compound they belong to.

Legend:
[1] = test system: breast cancer cells; experiment: Short-term (4 hours) treatment of breast cancer cells, dose-dependent IC50; assay type: cell-based; details: breast cancer cells exposed for 4 hours
Experimental: To examine whether the improved cellular uptake of 17-AAG by the PTD-ABD leads to enhanced efficacy of 17-AAG, breast cancer cells were exposed to 17-AAG or the PTD-ABD-17-AAG for 4 hours in a dose-dependent manner. […] Due to the facilitated uptake of 17-AAG bound to the PTD-ABD, the short-term treatment of 17-AAG at low concentrations can increase the cellular concentration of 17-AAG, which results in the enhanced anti-cancer efficacy of 17-AAG. Free 17-AAG was not sufficiently internalized into cells during the short incubation time because of the poor uptake kinetics of free 17-AAG.

[2] = test system: MCF-7 breast cancer cells; experiment: Viability of MCF-7 breast cancer cells, dose-dependent IC50; assay type: cell-based
Experimental: To test the therapeutic efficacy of the formulation of PTD-ABD-17-AAG in MCF-7 breast cancer cells, the IC50 value was determined in a dose-dependent manner. The IC50 value is a measure of how effective a drug or therapeutic is and is defined as the concentration required to inhibit a biological process or component of a biological process (e.g., enzyme, cell, cell receptor) in half. The PTD-ABD-17-AAG was prepared as described above (Example 1) and administered to cancer cells. MCF-7 cells were exposed to one of the following formulations: 1) PTD-ABD-17-AAG; 2) 17-AAG; or 3) PTD-ABD.

[3] = test system: MCF-7 cells; experiment: Uptake kinetics of FITC-GM into MCF-7 cells; assay type: cell-based; details: 2 hours post-treatment
Experimental: Finally, 10 μg/ml of GM was sufficient to achieve internalization into 100% of the cell population when delivered by the PTD-ABD protein (FIG. 3c).

[4] = test system: microtubules; details: cited from earlier work

- IC50 value [1]: approximately 25 μg/ml
- IC50 [2]: 15 µM
SMILES: C=CCNC1=C2C[C@@H](C)C[C@H](OC)[C@H](O)[C@@H](C)/C=C(\C)[C@H](OC(N)=O)[C@@H](OC)/C=C\C=C(/C)C(=O)NC(=CC1=O)C2=O [17-AAG, 17-allylamino-17-demethoxygeldanamycin]

SMILES: COC1=C2C[C@@H](C)C[C@H](OC)[C@H](O)[C@@H](C)/C=C(\C)[C@H](OC(N)=O)[C@@H](OC)/C=C\C=C(/C)C(=O)NC(=CC1=O)C2=O [GM, Geldanamycin]
- cell population positive to FITC (GM internalized) [3]: 60%

SMILES: CC(=O)O[C@H]1C(=O)[C@@]2(C)[C@H]([C@H](OC(=O)c3ccccc3)[C@]3(O)C[C@H](OC(=O)[C@H](O)[C@@H](NC(=O)c4ccccc4)c4ccccc4)C(C)=C1C3(C)C)[C@]1(OC(C)=O)CO[C@@H]1C[C@@H]2O [PTX, paclitaxel]
- binding affinity Ka to microtubules [4]: ~6e+07 M⁻¹
